Test results published in ChEMBL document CHEMBL1687706, “Inhibition of human immunodeficiency virus type 1 replication in human cells by Debio-025, a novel cyclophilin binding agent” (Antimicrob Agents Chemother, 2008).
Active and inactive are the calls of the source. The rule behind the calls is not given here.

Experiments:
Rattus norvegicus [1] = assay: Immunosuppressive activity in Sprague-Dawley rat […] model assessed as IgM level at 50 mg/kg, po administered once daily for 28 days by ELISA; type: functional
Rattus norvegicus [2] = assay: Immunosuppressive activity in Sprague-Dawley rat […] model assessed as IgM level at 25 mg/kg, po administered once daily for 28 days by ELISA; type: functional
Rattus norvegicus [3] = assay: Immunosuppressive activity in Sprague-Dawley rat […] model assessed as IgM level at 10 mg/kg, po administered once daily for 28 days by ELISA; type: functional
PBMC = assay: Cytotoxicity against human PBMC at 0.83 uM by MTT assay; type: cell-based
MT4 = assay: Cytotoxicity against human MT4 cells at 0.83 uM by MTT assay; type: cell-based; conditions: mt4, 0.83 µM
Jurkat = assay: Immunosuppressive activity in human Jurkat cells assessed as inhibition of PHA-phorbol myristate acetate induced beta-galactosidase activity at 21.5 uM; type: functional, cell-based
[4] = system: Human immunodeficiency virus 1; assay: Antiviral activity against HIV-1 NL4-3 infected in human TZB cells assessed as inhibitory effect on the completion of viral double stranded DNA at 0.5 to 2.5 uM by RT-PCR; type: functional, organism-based
[5] = system: Human immunodeficiency virus 1; conditions: Human immunodeficiency virus 1, 3B
Rattus norvegicus [6] = assay: Immunosuppressive activity in Sprague-Dawley rat […] model assessed as percent T-helper cells at 10 mg/kg, po administered once daily for 28 days by flow cytometry; type: functional
Rattus norvegicus [7] = assay: Immunosuppressive activity in Sprague-Dawley rat […] model assessed as percent T-helper cells at 25 mg/kg, po administered once daily for 28 days by flow cytometry; type: functional
Rattus norvegicus [8] = assay: Immunosuppressive activity in Sprague-Dawley rat KHL model assessed as percent cytotoxic T cells at 10 mg/kg, po administered once daily for 28 days by flow cytometry; type: functional, T-cell
[9] = system: Human immunodeficiency virus 1; assay: Antiviral activity against HIV1 subtype A 92RW016 infected in human PBMC assessed as inhibition of viral replication by ELISA; type: functional, organism-based; conditions: Human immunodeficiency virus 1, subtype A 92RW016
[10] = system: Human immunodeficiency virus 1; assay: Antiviral activity against HIV1 subtype A 92UG037 infected in human PBMC assessed as inhibition of viral replication by ELISA; type: functional, organism-based; conditions: Human immunodeficiency virus 1, subtype A 92UG037
[11] = system: Human immunodeficiency virus 1; assay: Antiviral activity against HIV1 subtype B SF162 infected in human PBMC assessed as inhibition of viral replication by ELISA; type: functional; conditions: Human immunodeficiency virus 1, SF162 ISOLATE
[12] = system: Human immunodeficiency virus 1; assay: Antiviral activity against HIV1 subtype B TEKI infected in human PBMC assessed as inhibition of viral replication by ELISA; type: functional, organism-based; conditions: Human immunodeficiency virus 1, subtype B TEKI
[13] = system: Human immunodeficiency virus 1; assay: Antiviral activity against HIV1 subtype B ROJO infected in human PBMC assessed as inhibition of viral replication by ELISA; type: functional, organism-based; conditions: Human immunodeficiency virus 1, subtype B ROJO
[14] = system: Human immunodeficiency virus 1; assay: Antiviral activity against HIV1 subtype F 93BR020 infected in human PBMC assessed as inhibition of viral replication by ELISA; type: functional, organism-based; conditions: Human immunodeficiency virus 1, subtype F 93BR020
[15] = system: Human immunodeficiency virus 1; assay: Antiviral activity against HIV1 subtype O BCF01 infected in human PBMC assessed as inhibition of viral replication by ELISA; type: functional, organism-based; conditions: Human immunodeficiency virus 1, subtype O BCF01
[16] = system: Human immunodeficiency virus 1; assay: Antiviral activity against APV, ATV, LPV, IDV, NFV, RTV, SQV-resistant HIV-1 1064-52 infected in human PBMC assessed as inhibition of viral replication by ELISA; type: functional, organism-based; conditions: Human immunodeficiency virus 1, 1064-52
[17] = system: Human immunodeficiency virus 1; assay: Antiviral activity against LPV, APV, ATV, IDV, NFV, RTV, SQV, AZT, ddI, 3TC, d4T-resistant HIV-1 MDR3761 infected in human PBMC assessed as inhibition of viral replication by ELISA; type: functional, organism-based; conditions: Human immunodeficiency virus 1, MDR3761
[18] = system: Human immunodeficiency virus 1; assay: Antiviral activity against APV, ATV, IDV, LPV, NFV, RTV, SQV, 3TC, FTC, ABC, AZT, d4T, ddC, ddI, TDF, EFV, DLV, NVP-resistant HIV-1 MDR769 infected in human PBMC assessed as inhibition of viral replication by ELISA; type: functional, organism-based; conditions: Human immunodeficiency virus 1, MDR769
[19] = system: Human immunodeficiency virus 1; assay: Antiviral activity against LPV, APV, ATV, IDV, NFV, RTV, SQV-resistant HIV-1 52-52 infected in human PBMC assessed as inhibition of viral replication by ELISA; type: functional, organism-based; conditions: Human immunodeficiency virus 1, 52-52
[20] = Cytotoxicity against african green monkey Vero cells; type: cell-based; conditions: chlorocebus sabaeus, read-out: TC50 (the source's name)
Influenza A virus = assay: Antiviral activity against Influenza A virus H1N1 infected in MDCK cells assessed as inhibition of viral replication; type: functional, organism-based
Influenza B virus = assay: Antiviral activity against influenza B virus infected in MDCK cells assessed as inhibition of viral replication; type: functional, organism-based
[21] = system: Vesicular stomatitis virus; assay: Antiviral activity against VSV infected in human embryonic lung cells assessed as inhibition of viral replication; type: functional, organism-based
[22] = Cytotoxicity against CRFK; design: species or system Felis catus; conditions: cat, CRFK cells; read-out: TC50 (the source's name)
Hepatitis C virus = assay: Antiviral activity against HCV infected in human Huh 5.2 cells assessed as reduction in viral RNA level by luciferase reporter gene assay; type: functional, organism-based, Hepacivirus hominis; conditions: Huh-5-2
Human alphaherpesvirus 2 = assay: Antiviral activity against Herpes simplex virus 2 G infected in human embryonic lung cells assessed as inhibition of viral replication; type: functional, organism-based; conditions: Human alphaherpesvirus 2, strain G
Human alphaherpesvirus 3 = assay: Antiviral activity against VZV OKA infected in human embryonic lung cells assessed as inhibition of; type: functional, organism-based; conditions: Human alphaherpesvirus 3, OKA
Hepatitis B virus = assay: Antiviral activity against HBV infected in human hepAD38 cells assessed as inhibition of viral replication; type: functional, organism-based
[23] = Antiviral activity against HPV-33 infected in CK1 cells assessed as inhibition of viral replication after 3 days; type: functional, cell-based, Human papillomavirus type 33; conditions: human papillomavirus 33, CK1, 72 h; read-out: TC50 (the source's name)
[24] = Antiviral activity against HPV-18 infected in human HeLa cells assessed as inhibition of viral replication after 7 days; type: functional; conditions: human papillomavirus 18, HeLa, 168 h; read-out: TC50 (the source's name)
[25] = Antiviral activity against HPV-33 infected in CK1 cells assessed as inhibition of viral replication after 7 days; type: functional, Human papillomavirus type 33; conditions: human papillomavirus 33, CK1, 168 h; read-out: TC50 (the source's name)
[26] = system: Human immunodeficiency virus 1; assay: Antiviral activity against HIV-1 NL4-3 infected in human TZB cells assessed as inhibition of viral entry at 0.5 to 2.5 uM after 2 hrs by RT-PCR; type: functional, organism-based
cells = conditions: Mus musculus, PBMC
[27] = system: Human immunodeficiency virus 1; assay: microbe, parasite or virus in culture; conditions: Human immunodeficiency virus 1, 3B, MT4
[28] = system: Human respiratory syncytial virus; assay: Antiviral activity against RSV infected in human HeLa cells assessed as inhibition of viral replication

`C/C=C/C[C@@H](C)[C@@H](O)[C@H]1C(=O)N[C@@H](CC)C(=O)N(C)[C@H](C)C(=O)N(CC)[C@@H](C(C)C)C(=O)N[C@@H](C(C)C)C(=O)N(C)[C@@H](CC(C)C)C(=O)N[C@@H](C)C(=O)N[C@H](C)C(=O)N(C)[C@@H](CC(C)C)C(=O)N(C)[C@@H](CC(C)C)C(=O)N(C)[C@@H](C(C)C)C(=O)N1C` [ALISPORIVIR] gave a deltaA (Rattus norvegicus [1]) of 0.67, a deltaA (Rattus norvegicus [2]) of 0.78 and a deltaA (Rattus norvegicus [3]) of 0.78. The Activity (PBMC) was “Non-toxic”, the Activity (MT4) was “Non-toxic” and the inhibition (Jurkat) was “Active”. For the same compound, the inhibition [4] was “Active”, the IC50 [5] was 64 nM and the Activity (Rattus norvegicus [6]) was 29.8%. It also gave an Activity (Rattus norvegicus [7]) of 34.5%, an Activity (Rattus norvegicus [8]) of 17.6% and an IC50 [9] of 8 nM. It also gave an IC50 [10] of 16 nM, an IC50 [11] of 15 nM and an IC50 [12] of 4410 nM. The IC50 [13] was 24 nM, the IC50 [14] was 6250 nM and the IC50 [15] was 6250 nM. For the same compound, the IC50 [16] was 7 nM, the IC50 [17] was 160 nM and the IC50 [18] was 12 nM. It also gave an IC50 [19] of 3120 nM, a CC50 [20] of 16600 nM and an IC50 (Influenza A virus) of over 9900 nM. The IC50 (Influenza B virus) was over 9900 nM, the IC50 [21] was over 25000 nM and the CC50 [22] was 10600 nM. It also gave an IC50 (Hepatitis C virus) of 220 nM, an IC50 (Human alphaherpesvirus 2) of over 25000 nM and an IC50 (Human alphaherpesvirus 3) of 2500 nM. The IC50 (Hepatitis B virus) was 4100 nM, the CC50 [23] was 400 nM and the CC50 [24] was 3300 nM. For the same compound, the CC50 [25] was 600 nM, the inhibition [26] was “inactive” and the IC50 (cells) was 820 nM. For the same compound, the IC50 [27] was 99 nM and the IC50 [28] was over 8200 nM.
